Experimental data from US20200308192A1, “NOVEL THIAZOLO[5,4-D]PYRIMIDINE DERIVATIVES AS INVERSE AGONISTS OF A2A ADENOSINE RECEPTORS” (Universita degli Studi di Ferrara, priority 2016, published 2020).
Read-outs that look alike come from different tables or passages of the source.

Experiments:
[1] = biological target: T1, human adenosine A2B receptor (Homo sapiens, UniProt P29275); experiment: cAMP assay, inhibition of NECA-stimulated cAMP levels in hA2B CHO cells; conditions: read-out: Receptor hA2B IC50; cAMP stimulated by NECA (100 nM); mean ± SEM
T1 sequence (P29275 1-332): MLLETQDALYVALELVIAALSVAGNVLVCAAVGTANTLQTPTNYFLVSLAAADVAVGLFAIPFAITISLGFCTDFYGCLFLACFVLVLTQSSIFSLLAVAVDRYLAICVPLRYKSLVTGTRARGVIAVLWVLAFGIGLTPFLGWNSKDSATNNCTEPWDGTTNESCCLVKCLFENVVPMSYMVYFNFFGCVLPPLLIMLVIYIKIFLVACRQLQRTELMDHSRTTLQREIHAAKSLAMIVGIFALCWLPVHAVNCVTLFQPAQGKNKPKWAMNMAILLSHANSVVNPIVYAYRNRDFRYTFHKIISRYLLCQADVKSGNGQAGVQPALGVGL

[2] = system: breast cancer cells MRMT-1; experiment: Cell proliferation assay (DELFIA BrdU); type: cell-based; conditions: 48 hours; for Effect on CGS 21680-induced proliferation of cancer cells: MRMT-1, compound 100 nM pre-treatment, CGS 21680 100 nM
Text: For the experiments of cellular proliferation, the DELFIA® kit was used and a multimode plate reader Ensight® from PerkinElmer. The DELFIA® (dissociation-enhanced lanthanide fluorescence immunoassay) assay is based on Time-Resolved Fluorescence (TRF) and on the incorporation of the 5-bromo-2-deoxyuridine (BrdU) in the DNA filaments recently synthesised by the proliferating cells seeded on microplates. The incorporated BrdU is detected by using a monoclonal antibody conjugated with europium, a long-lived chelated lanthanide, and the fluorescence measured is proportional to the synthesis of DNA in the cells population present in each well. The MRMT-1 cells, breast cancer cells, were pre-treated with some of the antagonists under evaluation at the concentration of 100 nM (compounds 1, 5, 6, 7, 10 of the present invention) for 30 minutes, then stimulated with CGS 21680 100 nM and after 30 minutes the solution of BrdU (10 μl/well) was added. At the end of the incubation period of 48 hours 100 μl/well of Anti-BrdU-Eu (0.5 μg/ml) were added and the cells were incubated for 120 minutes at room temperature. After 4 washings, 200 μl of DELFIA® stimulator were added at room temperature for 15 minutes and the Eu-fluorescence was detected by means of the Ensight® reader from Perkin Elmer (Perkin Elmer, Milan, Italy).

[3] = biological target: T2, human adenosine A3 receptor (Homo sapiens, UniProt P0DMS8); experiment: Competition binding, [125I]-ABMECA, hA3 CHO membranes; conditions: mean ± SEM
T2 construct: expressed in transfected cells; host or cells: CHO cells (membrane preparation)
T2 sequence (P0DMS8 1-318): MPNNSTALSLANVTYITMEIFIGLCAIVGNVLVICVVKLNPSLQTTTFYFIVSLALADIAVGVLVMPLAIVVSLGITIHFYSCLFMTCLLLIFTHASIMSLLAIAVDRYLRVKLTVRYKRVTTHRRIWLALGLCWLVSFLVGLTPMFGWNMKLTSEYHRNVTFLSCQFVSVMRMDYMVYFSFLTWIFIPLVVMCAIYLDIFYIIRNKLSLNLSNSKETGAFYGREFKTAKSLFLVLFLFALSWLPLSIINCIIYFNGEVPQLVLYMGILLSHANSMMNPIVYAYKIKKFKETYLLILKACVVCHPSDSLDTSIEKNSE

[4] = biological target: T3, human adenosine A1 receptor (Homo sapiens, UniProt P30542); experiment: Competition binding, [3H]-DPCPX, hA1 CHO membranes; conditions: read-out: Receptor hA1 Ki, mean ± SEM
T3 sequence (P30542 1-326): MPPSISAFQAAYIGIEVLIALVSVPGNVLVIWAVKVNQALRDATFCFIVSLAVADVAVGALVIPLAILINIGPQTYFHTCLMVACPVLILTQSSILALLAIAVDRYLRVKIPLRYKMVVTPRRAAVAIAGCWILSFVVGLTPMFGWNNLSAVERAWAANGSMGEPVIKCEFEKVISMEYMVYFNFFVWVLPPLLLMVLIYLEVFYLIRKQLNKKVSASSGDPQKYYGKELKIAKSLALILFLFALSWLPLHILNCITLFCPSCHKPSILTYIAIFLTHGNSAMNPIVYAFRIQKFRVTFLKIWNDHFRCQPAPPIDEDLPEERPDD

[5] = biological target: T4, human adenosine A2A receptor (Homo sapiens, UniProt P29274); experiment: Competition binding, [3H]-ZM 241385, hA2A CHO membranes
[6] = biological target: T4, human adenosine A2A receptor; experiment: cAMP assay in hA2A CHO cells, basal or with CGS 21680; type: cell-based; parameters: expressed in transfected cells; host or cells: CHO cells; conditions: for IC50: mean ± SEM
Protocol: For the membranes preparation the culture medium was removed, and the cells were washed with a saline phosphate-buffered solution collected with hypotonic buffer (5 mM Tris HCl, 1 mM EDTA, pH 7.4).
CHO cells transfected with the adenosine receptors were washed with a phosphate-buffered saline solution, detached with trypsin and centrifuged for 10 minutes at 200 g. […] The reaction was terminated by addition of cold 6% trichloroacetic acid (TCA). The TCA suspension was centrifuged at 2000 g for 10 minutes at 4° C. and the supernatant was extracted four times with diethyl ether with water. The final aqueous solution was tested for the cAMP levels by a competition protein binding assay with a cAMP-binding protein. The standard samples of cAMP (0-10 pmoli) were added to each test tube containing the incubation buffer (trizma base 0.1 M, aminophylline 8.0 mM, 2 mercaptoethanol 6.0 mM, pH 7.4) and [^3H]-cAMP. The binding protein previously prepared from beef adrenals, was added to the samples previously incubated at 4° C. for 150 minutes, and after the addition of charcoal were centrifuged at 2000 g for 10 min.
(§1) The statistical analysis of the data was performed using ANOVA followed by Dunnett's test. […] KH and KL were obtained by using a two sites binding model and Graph PAD Prism (San Diego, Calif., USA). The values of IC50 obtained in the cAMP assays were calculated by non-linear regression analysis using the equation for a sigmoid concentration-response curve. All data are expressed as the mean±SEM of four independent experiments each performed in duplicate for in vitro assays and n=8-10 mice/group for in vivo assays.

Female CD1 mice [7] = experiment: Warm-water tail immersion test; type: in vivo; conditions: intraperitoneal
Protocol: (§2) Female CD1 mice (22-24 g) were obtained from Charles River (Milano, Italia). The animals were kept under standard environmental temperature conditions (22±2° C.) and under moisture-controlled conditions with 12 hours light/dark cycle and food and water ad libitum. The animals were acclimated to the laboratory settings for at least 1 hour before testing and were used only once throughout the experiments. All the procedures used in the present study were carried out in accordance with the European Communities Council Directives (86/609/EEC) and the National Laws and Policies (D.L.116/92) after authorization from the Italian Ministry for Health (4/2014-B). In addition, the experimental procedures were in agreement with the current guidelines for the care of laboratory animals and the ethical guidelines for investigations of experimental pain in conscious animals (Couto M. Methods Mol Biol 2011; 770:579-599).
The warm-water tail immersion assay was performed using a water thermostated bath at a temperature maintained at 52° C. The compounds under evaluation were dissolved in DMSO and then diluted in saline solution. The carrier consists of saline solution and 5% of DMSO. Before intraperitoneally injecting the compound, the natural time of response of the mice was determined and the distal part of the tail was then immersed in the thermostated bath. The latency in responding to the heat stimulus with a vigorous flexion of the tail was measured by means of a manual stopwatch. A 20 seconds maximum cut-off time was imposed to prevent tissue damage. The latency of the tail withdrawal was then tested 15 minutes after injection of the compound.
as §1

Female CD1 mice [8] = experiment: Writhing test (acetic acid-induced abdominal constrictions); type: in vivo; conditions: for Dose-response curve, Writhing Test: P<0.001, one-way ANOVA
Protocol: as §2
The acetic acid-induced writhing response was performed after intraperitoneal injection of 10 ml/Kg of 0.6% acetic acid solution. The response to the abdominal constrictions induced by acetic acid was evaluated after the intraperitoneal injection of 10 ml/kg of a 0.6% solution of acetic acid. The compounds under evaluation were dissolved in DMSO and then diluted in a saline solution. The carrier consists of saline solution and 5% of DMSO. A writhe is indicated by stretching of the abdomen followed by the extension of the hind limbs. The animals (8 mice per group) were placed singly in a glass cylinder and the number of writhing episodes of abdominal contractions was counted in a 30 minutes period. The compounds were administered intraperitoneally 15 minutes before injection of acetic acid solution.
as §1

[9] = CGS 21680 (10 nM), read-out: IC50 cAMP, in presence of CGS 21680
[10] = CGS 21680 (10 nM), read-out: Emax cAMP, in presence of CGS 21680
[11] = basal cAMP, read-out: IC50 cAMP, in absence of CGS 21680
[12] = efficacy versus basal cAMP production, read-out: Emax cAMP, in absence of CGS 21680

T4 sequence (P29274 whole entry): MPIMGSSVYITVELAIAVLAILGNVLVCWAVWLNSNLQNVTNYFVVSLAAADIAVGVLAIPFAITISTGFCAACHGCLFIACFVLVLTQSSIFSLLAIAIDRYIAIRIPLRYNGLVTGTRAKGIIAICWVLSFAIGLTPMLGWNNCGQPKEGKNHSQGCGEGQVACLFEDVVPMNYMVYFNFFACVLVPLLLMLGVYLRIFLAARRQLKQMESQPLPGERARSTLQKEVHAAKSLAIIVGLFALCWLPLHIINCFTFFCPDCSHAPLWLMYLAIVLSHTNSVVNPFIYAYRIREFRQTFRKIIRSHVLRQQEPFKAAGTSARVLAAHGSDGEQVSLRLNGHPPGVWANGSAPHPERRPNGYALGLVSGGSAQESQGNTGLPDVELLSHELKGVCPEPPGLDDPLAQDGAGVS

Row | SMILES | IC50 [1] [nM] | Ki [3] [nM] | Ki [4] [nM] | Ki [5] [nM] | IC50 [6, 9] [nM] | Emax [6, 10] [%] | IC50 [6, 11] [nM] | Emax [6, 12] [%] | Effect on CGS 21680-induced proliferation of cancer cells [2] | Anti-nociceptive activity, tail immersion test (Female CD1 mice [7]) | ED50 (Female CD1 mice [8]; Mus musculus, ip, intraperitoneal, 15 minutes before acetic acid) [mg/kg] | Dose-response curve, Writhing Test (Female CD1 mice [8]) | Effect on proliferation of cancer cells ([2]; MRMT-1, CGS 21680 100 nM) | Anti-nociceptive activity, Writhing Test (Female CD1 mice [8]; intraperitoneal)
1 | Nc1nc(NCc2cccs2)nc2sc(-c3ccco3)nc12 [Compound 6, 2-(furan-2-yl)-N^5-(thiophen-2-ylmethyl)[1,3]thiazolo[5,4-d]pyrimidin-5,7-diamine] | 75 ± 8 | 6.43 ± 8 | 12.5 ± 1.1 | 3.82 ± 0.31 | 0.036 ± 0.003 | 132 ± 12 | 0.0017 ± 0.0002 | 61 | able to reduce the proliferation of cancer cells | – | – | – | – | –
2 | Nc1nc(NCc2cccnc2)nc2sc(-c3ccco3)nc12 [Compound 7, 2-(furan-2-yl)-N^5-(pyridin-3-ylmethyl)[1,3]thiazolo[5,4-d]pyrimidin-5,7-diamine] | 109 ± 11 | 18.2 ± 1.7 | 7.12 ± 0.65 | 0.68 ± 0.05 | 0.059 ± 0.006 | 126 ± 12 | 0.011 ± 0.001 | 61 | able to reduce the proliferation of cancer cells | – | – | – | – | –
3 | Nc1nc(NCc2ccco2)nc2sc(-c3ccco3)nc12 [Compound 5, 2-(furan-2-yl)-N^5-(furan-2-ylmethyl)[1,3]thiazolo[5,4-d]pyrimidin-5,7-diamine] | 82 ± 9 | 4.72 ± 0.38 | 38 ± 4 | 1.73 ± 0.15 | 0.04 ± 0.004 | 133 ± 13 | 0.0016 ± 0.0002 | 64 | able to reduce the proliferation of cancer cells | – | – | – | – | –
4 | CCNC(=O)[C@H]1O[C@@H](n2cnc3c(N)nc(NCCc4ccc(CCC(=O)O)cc4)nc32)[C@H](O)[C@@H]1O [CGS 21680, reference compound] | – | – | – | – | – | – | – | – | – | – | – | – | able to increase the proliferation of the cancer cells | –
5 | COc1cccc(CNc2nc(N)c3nc(-c4ccco4)sc3n2)c1 [Compound 3, 2-(furan-2-yl)-N^5-(3-methoxybenzyl)[1,3]thiazolo[5,4-d]pyrimidin-5,7-diamine] | 452 ± 42 | 92 ± 8 | 8.16 ± 0.72 | 26 ± 2 | – | – | – | – | – | – | – | dose-dependent effect | – | potency similar to morphine

Further lines, with some results ahead:

Row | IC50 [1] [nM] | Ki [3] [nM] | Ki [4] [nM] | Ki [5] [nM] | IC50 [6, 9] [nM] | Emax [6, 10] [%] | IC50 [6, 11] [nM] | Emax [6, 12] [%] | SMILES | Effect on CGS 21680-induced proliferation of cancer cells [2] | Anti-nociceptive activity, tail immersion test (Female CD1 mice [7]) | ED50 (Female CD1 mice [8]; Mus musculus, ip, intraperitoneal, 15 minutes before acetic acid) [mg/kg] | Dose-response curve, Writhing Test (Female CD1 mice [8]) | Effect on proliferation of cancer cells ([2]; MRMT-1, CGS 21680 100 nM) | Anti-nociceptive activity, Writhing Test (Female CD1 mice [8]; intraperitoneal)
6 | 112 ± 11 | 65 ± 6 | 4.92 ± 0.37 | 18 ± 2 | 0.045 ± 0.004 | 138 ± 13 | 0.0064 ± 0.0005 | 62 | Nc1nc(NCCc2cccs2)nc2sc(-c3ccco3)nc12 [Compound 10, 2-(furan-2-yl)-N^5-(2-(thiophen-2-yl)ethyl)[1,3]thiazolo[5,4-d]pyrimidin-5,7-diamine] | able to reduce the proliferation of cancer cells | – | – | – | – | –
7 | – | 683 ± 64 | – | – | – | – | – | – | Nc1nc(NCCc2ccc(O)cc2)nc2nc(-c3ccco3)nn12 [ZM 241385, reference compound] | – | no effect up to 10 mg/kg | 1.37 ± 0.108 | dose-dependent effect | – | –
